Tests used:
[1] = target: T1, Edg-8 (Homo sapiens, UniProt Q9H228); experiment: Intracellular calcium mobilization (FLIPR) in HTC cells expressing Edg-8; assay type: cell-based
T1 construct: expressed in transfected cells; host or cells: HTC rat hepatoma cells

[2] = target: T2, Edg-2 (Homo sapiens, UniProt Q92633); experiment: Intracellular calcium mobilization (FLIPR) in HTC cells expressing Edg-2; assay type: cell-based
T2 construct: expressed in transfected cells; host or cells: HTC rat hepatoma cells

[3] = target: T3, Edg-4 (Homo sapiens, UniProt Q9HBW0); experiment: Intracellular calcium mobilization (FLIPR) in HTC cells expressing Edg-4; assay type: cell-based
T3 construct: expressed in transfected cells; host or cells: HTC rat hepatoma cells

[4] = target: T4, Edg-6 (Homo sapiens, UniProt O95977); experiment: Intracellular calcium mobilization (FLIPR) in HTC cells expressing Edg-6; assay type: cell-based
T4 construct: expressed in transfected cells; host or cells: HTC rat hepatoma cells
T4 sequence (O95977 1-384): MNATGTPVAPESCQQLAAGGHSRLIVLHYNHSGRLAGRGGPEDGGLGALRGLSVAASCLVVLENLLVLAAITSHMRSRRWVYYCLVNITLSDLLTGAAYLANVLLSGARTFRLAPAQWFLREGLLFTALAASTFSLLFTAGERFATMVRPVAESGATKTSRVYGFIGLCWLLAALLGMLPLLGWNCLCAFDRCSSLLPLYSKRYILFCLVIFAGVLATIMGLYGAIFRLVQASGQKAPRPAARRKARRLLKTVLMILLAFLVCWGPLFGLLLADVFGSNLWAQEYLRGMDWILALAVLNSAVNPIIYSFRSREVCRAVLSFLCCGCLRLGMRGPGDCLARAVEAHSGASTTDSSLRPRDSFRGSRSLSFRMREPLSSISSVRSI

[5] = target: T5, Edg-3 (Homo sapiens, UniProt Q99500); experiment: Intracellular calcium mobilization (FLIPR) in HTC cells expressing Edg-3; assay type: cell-based
T5 construct: expressed in transfected cells; host or cells: HTC rat hepatoma cells

[6] = target: T6, Edg-1 (Homo sapiens, UniProt P21453); experiment: Intracellular calcium mobilization (FLIPR) in HTC cells expressing Edg-1; assay type: cell-based
T6 construct: expressed in transfected cells; host or cells: HTC rat hepatoma cells

[7] = target: T7, Edg-5 (Homo sapiens, UniProt O95136); experiment: Intracellular calcium mobilization (FLIPR) in HTC cells expressing Edg-5; assay type: cell-based
T7 construct: expressed in transfected cells; host or cells: HTC rat hepatoma cells

[8] = target: T8, human Edg 7 receptors (Homo sapiens, UniProt Q9UBY5); experiment: Intracellular calcium mobilization (FLIPR) in HTC cells expressing Edg-7; assay type: cell-based
T8 construct: expressed in transfected cells; host or cells: HTC rat hepatoma cells
T8 sequence (Q9UBY5 1-353): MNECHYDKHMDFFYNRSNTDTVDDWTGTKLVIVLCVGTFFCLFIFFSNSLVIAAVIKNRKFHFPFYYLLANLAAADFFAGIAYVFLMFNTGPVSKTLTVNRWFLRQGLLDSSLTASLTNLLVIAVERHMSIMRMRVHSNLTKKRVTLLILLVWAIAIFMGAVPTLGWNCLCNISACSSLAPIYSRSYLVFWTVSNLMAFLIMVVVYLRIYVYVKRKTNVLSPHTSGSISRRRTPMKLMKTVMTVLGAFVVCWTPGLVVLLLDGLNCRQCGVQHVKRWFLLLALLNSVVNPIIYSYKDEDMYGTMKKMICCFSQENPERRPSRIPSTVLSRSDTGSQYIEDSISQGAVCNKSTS
Protocol: (§1) The compounds were tested in HTC cells expressing human Edg 7 receptors. […] The compounds are tested in this recombinant system first, and subsequently tested in cell lines expressing Edg-7 (in addition to other Edg receptors).
as §1, with “receptors). […] The calcium mobilization assays were conducted as described in Section 6.6 (Example 6).” for “receptors).”
LPA receptors such as Edg-7, couple to calcium effector pathways, and result in increases in intracellular calcium following receptor activation (An, 1998, J. Cell. Biochem Supp. 30-31:147-157). This biological response lends itself to a very efficient, high-throughput screen using a Fluorescence Imaging Plate Reader (FLIPR; Molecular Devices, Sunnyvale, Calif.). The FLIPR system is a real-time, cell-based assay system with continuous fluorescence detection using a cooled CCD camera. The FLIPR system was used to developing an Edg-7 receptor screen. Rat hepatoma cells stably expressing Edg-7 receptor were plated on 384-well plates and loaded with a calcium dye loading kit (Molecular Devices, Sunnyvale, Calif.) for 1 hour at room temperature. Cells were then placed on the FLIPR^384 (Molecular Devices, Sunnyvale, Calif.) and excited by an argon laser at 488 nm. The data for the entire 384-well plate was updated every second. An integrated robotic pipettor allowed for simultaneous compound addition into each individual well in the plate.

[9] = system: untransfected HTC cells; experiment: Intracellular calcium mobilization (FLIPR) in untransfected HTC cells; assay type: cell-based, rat; conditions: concentrations as high as 25 μM
[10] = concentrations as high as 20 μM
[11] = HTC cells expressing human Edg 7 receptors
[12] = concentrations as high as 25 μM

T6 sequence (P21453 whole entry): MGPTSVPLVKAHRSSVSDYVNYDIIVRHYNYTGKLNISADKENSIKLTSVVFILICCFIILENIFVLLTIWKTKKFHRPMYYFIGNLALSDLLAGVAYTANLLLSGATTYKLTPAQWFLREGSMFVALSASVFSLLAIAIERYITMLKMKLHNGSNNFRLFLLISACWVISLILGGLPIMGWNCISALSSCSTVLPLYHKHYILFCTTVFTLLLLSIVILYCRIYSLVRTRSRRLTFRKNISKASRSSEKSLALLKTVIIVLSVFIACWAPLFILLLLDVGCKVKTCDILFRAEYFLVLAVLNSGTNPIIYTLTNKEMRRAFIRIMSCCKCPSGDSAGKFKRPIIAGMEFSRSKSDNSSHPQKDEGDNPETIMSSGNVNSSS
T1 sequence (Q9H228 whole entry): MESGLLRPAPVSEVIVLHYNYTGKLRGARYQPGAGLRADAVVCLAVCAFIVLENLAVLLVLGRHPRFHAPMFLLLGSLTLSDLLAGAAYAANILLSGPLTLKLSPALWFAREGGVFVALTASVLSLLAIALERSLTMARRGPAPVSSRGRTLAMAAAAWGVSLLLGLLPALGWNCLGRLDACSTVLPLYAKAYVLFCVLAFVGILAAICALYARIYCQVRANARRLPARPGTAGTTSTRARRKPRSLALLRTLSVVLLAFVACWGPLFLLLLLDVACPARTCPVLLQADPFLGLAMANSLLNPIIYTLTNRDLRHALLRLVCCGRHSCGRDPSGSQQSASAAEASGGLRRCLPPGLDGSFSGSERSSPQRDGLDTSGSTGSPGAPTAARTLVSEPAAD
T2 sequence (Q92633 whole entry): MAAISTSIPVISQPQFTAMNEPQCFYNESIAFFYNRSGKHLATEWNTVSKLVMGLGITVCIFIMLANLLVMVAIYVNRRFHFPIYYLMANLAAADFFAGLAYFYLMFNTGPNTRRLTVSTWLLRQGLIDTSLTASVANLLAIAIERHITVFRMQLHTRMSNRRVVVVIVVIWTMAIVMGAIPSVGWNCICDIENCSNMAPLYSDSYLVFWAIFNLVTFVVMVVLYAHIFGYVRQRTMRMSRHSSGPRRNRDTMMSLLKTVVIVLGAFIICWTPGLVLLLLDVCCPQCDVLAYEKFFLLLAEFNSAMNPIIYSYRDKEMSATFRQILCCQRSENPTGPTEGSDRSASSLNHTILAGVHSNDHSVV
T7 sequence (O95136 whole entry): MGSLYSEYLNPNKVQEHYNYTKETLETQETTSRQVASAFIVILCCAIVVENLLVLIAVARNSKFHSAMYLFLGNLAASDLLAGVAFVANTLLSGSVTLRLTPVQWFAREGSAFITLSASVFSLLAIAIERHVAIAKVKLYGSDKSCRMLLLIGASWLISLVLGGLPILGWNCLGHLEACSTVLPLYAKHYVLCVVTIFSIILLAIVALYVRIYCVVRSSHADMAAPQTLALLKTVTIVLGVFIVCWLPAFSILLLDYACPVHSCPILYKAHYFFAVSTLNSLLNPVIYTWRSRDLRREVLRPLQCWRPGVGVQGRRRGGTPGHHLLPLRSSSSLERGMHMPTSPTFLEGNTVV
T3 sequence (Q9HBW0 whole entry): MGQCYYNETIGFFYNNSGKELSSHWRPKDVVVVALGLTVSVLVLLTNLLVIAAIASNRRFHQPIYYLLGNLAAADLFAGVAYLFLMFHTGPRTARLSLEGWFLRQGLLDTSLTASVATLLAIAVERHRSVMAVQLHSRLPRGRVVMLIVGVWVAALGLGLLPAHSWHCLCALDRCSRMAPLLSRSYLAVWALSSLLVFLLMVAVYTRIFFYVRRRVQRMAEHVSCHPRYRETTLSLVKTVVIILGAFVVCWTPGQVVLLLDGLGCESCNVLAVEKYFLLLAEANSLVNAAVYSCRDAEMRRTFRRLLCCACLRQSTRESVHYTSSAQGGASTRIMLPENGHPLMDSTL
T5 sequence (Q99500 whole entry): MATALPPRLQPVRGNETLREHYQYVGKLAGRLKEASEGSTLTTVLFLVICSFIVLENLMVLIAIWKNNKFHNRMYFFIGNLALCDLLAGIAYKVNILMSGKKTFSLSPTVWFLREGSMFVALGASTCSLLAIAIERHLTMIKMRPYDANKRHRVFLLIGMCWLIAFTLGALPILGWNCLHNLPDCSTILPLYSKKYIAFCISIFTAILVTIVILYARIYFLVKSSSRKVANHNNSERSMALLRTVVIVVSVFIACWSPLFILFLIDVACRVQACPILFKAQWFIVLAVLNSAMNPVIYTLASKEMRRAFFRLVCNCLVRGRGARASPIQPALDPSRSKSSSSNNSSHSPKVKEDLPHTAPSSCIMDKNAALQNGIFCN

inhibition of S1P-stimulated calcium increases [1, 10] | inhibition of LPA-stimulated calcium increases [2, 10] | inhibition of LPA-stimulated calcium increases [3, 10] | inhibition of S1P-stimulated calcium increases [4, 10] | inhibition of S1P-stimulated calcium increases [5, 10] | inhibition of S1P-stimulated calcium increases [6, 10] | inhibition of S1P-stimulated calcium increases [7, 10] | inhibition of Edg-7 stimulated LPA responses [8, 11] | selectivity for Edg 7 ([8]; tested on HTC cells expressing Edg-7) | melting point [°C] | stimulation of calcium increases [1, 12] | stimulation of calcium increases [2, 12] | stimulation of calcium increases [3, 12] | stimulation of calcium increases [4, 12] | stimulation of calcium increases [5, 12] | stimulation of calcium increases [6, 12] | stimulation of calcium increases [7, 12] | activation of the Edg-7 receptor [8, 11] | SMILES | stimulation of calcium increases [9]
did not inhibit | did not inhibit | did not inhibit | did not inhibit | did not inhibit | did not inhibit | did not inhibit | demonstrate inhibition | exhibited selectivity | – | – | – | – | – | – | – | – | – | Cc1ccc(S(=O)(=O)N=C2NC(=O)/C(=C3/C(=O)Nc4ccccc43)S2)cc1 [Compound 105, 4-Methyl-N-[4-oxo-5-(2-oxo1,2-dihydroindol-3-ylidene)thiazolidin-2-ylidene]-benzenesulfonamide] | –
– | – | – | – | – | – | – | demonstrate inhibition | – | – | – | – | – | – | – | – | – | – | O=C(O)COc1ccc(Br)cc1/C=C1\S/C(=N\c2ccc(Cl)cc2)NC1=O [Compound 107, 4-Bromo-2-[2-(4-chlorophenylamino)-4-oxothiazolidin-5-ylidenemethyl]phenoxyacetic acid] | –
– | – | – | – | – | – | – | – | – | 134 to 135 | did not stimulate calcium increases | did not stimulate calcium increases | did not stimulate calcium increases | did not stimulate calcium increases | did not stimulate calcium increases | did not stimulate calcium increases | did not stimulate calcium increases | specifically activate | CCCCCC(CCCCC)=N/N=C1\NC(=O)C(CC(=O)O)S1 (centres unmarked) [Compound 127, 4-Oxo-2-[(1-pentylhexylidene)hydrazono]thiazolidin-5-ylacetic acid] | did not stimulate calcium increases
